Results taken from patent publication US20140356383A1, “ADMINISTRATION OF AN ANTI-GCC ANTIBODY-DRUG CONJUGATE AND A DNA DAMAGING AGENT IN THE TREATMENT OF CANCER” (priority 2013, published 2014).

Experiments:
[1] = system: 293 GCC#2 tumors; assay: Efficacy study with auristatin conjugates in 293 GCC#2 tumors, q7d×4; type: in vivo, SCID mice; conditions: for T/C: treatment/control
Procedure: 293 GCC#2 tumor-bearing SCID mice were treated with 5F9 conjugates with vc MMAE, vcMMAF or mcMMAF at three doses in comparison with 209 conjugates of these toxins or with free toxins or vehicle control. Doses were administered iv on a q7d×4 schedule. Tumors were harvested at days 3, 7, 10, 13 and 17. […] Table 18 provides a summary of the results (TGI=tumor growth inhibition, T/C=treatment/control, TGD=tumor growth delay, CR/PR=complete response/partial response; p value=measure to judge statistical significance, NS=not significant).

[2] = system: HT29 (WT / vector) cells; assay: Direct cytotoxicity assay (WST), HT29 wild-type / vector cells; type: cell-based, human
Procedure: To measure each antibody's ability to bind, internalize and kill target expressing cells, cytotoxicity assays were performed. In this assay, cells were incubated with various concentrations of the unconjugated primary anti-GCC antibody and a fixed non-toxic concentration of DM1-conjugated anti-human Fc secondary antibody (indirect cytotoxicity) or with various concentrations of toxin conjugated anti-GCC mAb (direct cytotoxicity). Cell viability was measured by WST assay after 4 days incubation.
Auristatin (analog of dolastatin 10) and maytansine class toxins were evaluated as ADCs with anti-GCC mAb. These toxins are all inhibitors of microtubule polymerization, acting as anti-mitotics.
The 5F9-auristatin toxin conjugates were tested in direct cytotoxicity assays of a variety of cells which been transfected with GCC nucleic acid and selected for expression of GCC. […] As a negative control, antibody drug conjugates were also made with sc209 antibody, which is a human IgG1 monoclonal antibody raised against an unrelated target, with no reactivity to GCC.

[3] = system: 293 GCC#2 tumor xenograft; assay: 5F9 vcMMAE single agent efficacy in 293 GCC#2 xenograft (Example 5); type: in vivo, SCID mice; conditions: dose 1.875-7.5 mg/kg, QW, T/C=volume of tumor/control
[4] = system: PHTX-249 Pa primary human pancreatic tumor xenograft; assay: Single-agent 5F9 vcMMAE in PHTX-249 Pa pancreatic xenograft; type: in vivo, mice
Description: The purpose of this study was to evaluate in vivo anti-tumor activity induced by combined administration of the 5F9 vcMMAE immunoconjugate (sometimes referred to herein as “MLN0264”) and gemcitabine in mouse xenograft primary human tumor explants (PHTX models of pancreatic cancer. These models included tumor tissue from patients with wild-type and mutant KRAS. Five pancreatic PHTX were generated by Champions Oncology (Hackensack, N.J.) using their CTG platform. 2 PHTX models were developed in-house. GCC expression was evaluated in each of the 7 PHTX models using the automated IHC assay described above.
In vivo anti-tumor studies of single-agent 5F9 vcMMAE immunoconjugate was conducted in all seven of the pancreatic subcutanreous xenograft mouse models. Animals were administered vehicle, free MMAE at 0.135 mg/kg once weekly (QW), a non-GCC targeting ADC at 7.5 mg/kg QW, or 5F9 vcMMAE at 3.75 or 7.5 mg/kg QW. The results for single agent activity of the immunoconjugate in PHTX-215 Pa and PHTX-249 Pa models is shown in FIGS. 15A and 15B, respectively.

[5] = system: 293-GCC#2 tumors; assay: PK/PD study (phospho-histone H3) in 293-GCC#2 tumor bearing mice; type: in vivo
Description: Phospho-histone H3 was detected by antibody (Upstate Biotechnology, now Millipore, Billerica, Mass.) staining of paraffin embedded sections of tumors.

Substance: 5F9 vcMMAE: 5F9 mAb conjugated to MMAE using a vc (Val-Cit) linker; average drug loading about 3.6
- TGI ([1]; 75 μg/kg iv q7d×4): 54.5
- T/C ([1]; 75 μg/kg iv q7d×4): 0.45
- TGD ([1]; 75 μg/kg iv q7d×4, tumor growth delay): 4.4
- TGI ([1]; 150 μg/kg iv q7d×4): 83.5
- T/C ([1]; 150 μg/kg iv q7d×4): 0.17
- TGI ([1]; 300 μg/kg iv q7d×4): 96.9
- T/C ([1]; 300 μg/kg iv q7d×4): 0.03
- LD 50 ([2]; HT29, auristatin ADCs): 0.93 nM
- LD 50 ([2]; HT 29 WT, auristatin ADCs): 84 nM
- T/C [3]: 0.03
- tumor growth inhibition ([4]; PHTX-249 Pa, by day 21): significant TGI versus vehicle or free MMAE
- TGI, % ([4]; model PHTX-249, KRAS Mut G12D, QWx3, day 21): 47%
- Average % Tumor cells pH 3 positive ([5]; single iv dose 75 μg/kg, 1 hr): 4.525%
- Average % Tumor cells pH 3 positive ([5]; single iv dose 75 μg/kg, 4 hr): 2.552%
- Average % Tumor cells pH 3 positive ([5]; single iv dose 75 μg/kg, 8 hr): 4.244%
- Average % Tumor cells pH 3 positive ([5]; single iv dose 75 μg/kg, 24 hr): 9.8199%
- Average % Tumor cells pH 3 positive ([5]; single iv dose 75 μg/kg, 48 hr): 8.692%
- Average % Tumor cells pH 3 positive ([5]; single iv dose 75 μg/kg, 96 hr): 8.628%
- Average % Tumor cells pH 3 positive ([5]; single iv dose 150 μg/kg, 1 hr): 3.335%
- Average % Tumor cells pH 3 positive ([5]; single iv dose 150 μg/kg, 4 hr): 2.785%
- Average % Tumor cells pH 3 positive ([5]; single iv dose 150 μg/kg, 8 hr): 4.576%
- Average % Tumor cells pH 3 positive ([5]; single iv dose 150 μg/kg, 24 hr): 13.79%
- Average % Tumor cells pH 3 positive ([5]; single iv dose 150 μg/kg, 48 hr): 14.26%
- Average % Tumor cells pH 3 positive ([5]; single iv dose 150 μg/kg, 96 hr): 14.68%
